From US20250059164A1, “IRAK DEGRADERS AND USES THEREOF” (Kymera Therapeutics, Inc., priority 2023, published 2025) come the findings set out here.

One data set concerns the target T1, IRAK4 (Homo sapiens, UniProt Q9NWZ3).
T1 construct: endogenous in cells; host or cells: OCI-LY10
T1 sequence (Q9NWZ3 1-460): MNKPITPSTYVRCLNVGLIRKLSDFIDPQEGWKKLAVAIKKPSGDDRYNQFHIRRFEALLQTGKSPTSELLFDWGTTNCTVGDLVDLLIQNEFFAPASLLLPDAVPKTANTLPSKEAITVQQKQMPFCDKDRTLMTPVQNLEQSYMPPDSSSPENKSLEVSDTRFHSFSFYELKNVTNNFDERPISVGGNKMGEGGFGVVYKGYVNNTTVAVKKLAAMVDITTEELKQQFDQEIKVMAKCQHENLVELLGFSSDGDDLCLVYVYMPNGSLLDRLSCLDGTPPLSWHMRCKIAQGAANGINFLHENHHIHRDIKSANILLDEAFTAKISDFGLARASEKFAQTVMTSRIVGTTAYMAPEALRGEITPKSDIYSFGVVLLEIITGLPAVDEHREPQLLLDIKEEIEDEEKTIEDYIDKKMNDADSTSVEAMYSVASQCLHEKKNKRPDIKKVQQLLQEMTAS
Description: IRAK4 MSD degradation in OCI-LY10. The class given is cell-based. The conditions noted are these: OCI-LY10 cells, 24 hrs, Meso Scale Discovery. Put shortly:
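OCI-LY10 cells treated 4 to 24 hours at 37° C. with 8-dose 1:3 series, top 1 to 10 μM. IRAK4 in lysates quantified by MSD sandwich immunoassay (mouse capture, rabbit detection, SULFO-TAG anti-rabbit). DC50 from three-parameter logistic fit.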
The DC50 is the midpoint of the concentration-degradation curve. A high value points to degradation only at high concentration. In turn, `COc1cc2nn([C@H]3CC[C@H](CN4CC[C@@H](c5cccc6c5n(C)c(=O)n6C5CCC(=O)NC5=O)[C@H](F)C4)CC3)cc2cc1C(=O)Nc1cccc(C(F)(F)F)n1` (stereo partly shown) [I-200] came in with a DC50 below 10 nM.

`Cn1c(=O)n(C2CCC(=O)NC2=O)c2cccc([C@@H]3CCN(C[C@H]4CC[C@H](n5cc6cc(C(=O)Nc7cccc(C(F)(F)F)n7)ccc6n5)CC4)C[C@H]3F)c21` (stereo partly shown) [I-201]: the DC50 was below 10 nM.

Molecule `Cn1c(=O)n(C2CCC(=O)NC2=O)c2cccc([C@@H]3CCN(C[C@H]4CC[C@H](n5cc6cc(NC(=O)c7cncc(C(F)(F)F)n7)c(Cl)cc6n5)CC4)C[C@H]3F)c21` (stereo partly shown) [I-210] showed a DC50 below 10 nM.

As to `Cn1c(=O)n(C2CCC(=O)NC2=O)c2cccc([C@@H]3CCN(C[C@H]4CC[C@H](n5cc6cc(NC(=O)c7cncc(C(F)(F)F)n7)c(C(F)F)cc6n5)CC4)C[C@H]3F)c21` (stereo partly shown) [I-214], the DC50 is below 10 nM.

In the case of `COc1cc2nn([C@H]3CC[C@H](CN4CCC5(CCN(c6cccc7c6n(C)c(=O)n7C6CCC(=O)NC6=O)CC5)C(F)(F)C4)CC3)cc2cc1C(=O)Nc1cncc(C#N)c1` (stereo partly shown) [I-228], the DC50 was below 10 nM.

As for `COc1cc2nn([C@H]3CC[C@H](CN4CCC5(CN(c6cccc7c6n(C)c(=O)n7C6CCC(=O)NC6=O)C5)C(F)(F)C4)CC3)cc2cc1NC(=O)c1cncc(C)c1` (stereo partly shown) [I-243], the DC50 was below 10 nM.

With `Cn1c(=O)n(C2CCC(=O)NC2=O)c2cccc([C@@H]3CCN(C[C@H]4CC[C@H](n5cc6cc(NC(=O)c7cccc(C(F)(F)F)c7)ncc6n5)CC4)C[C@H]3F)c21` (stereo partly shown) [I-244], the DC50 was below 10 nM.

In turn, `Cn1c(=O)n(C2CCC(=O)NC2=O)c2cccc([C@@H]3CCN(C[C@H]4CC[C@H](n5cc6cc(NC(=O)c7cccc(C(F)(F)F)c7)ccc6n5)CC4)C[C@H]3F)c21` (stereo partly shown) [I-245] came in with a DC50 below 10 nM.

`COc1cc2nn([C@H]3CC[C@H](CN4CC[C@@H](c5cccc6c5n(C)c(=O)n6C5CCC(=O)NC5=O)[C@H](F)C4)CC3)cc2cc1NC(=O)c1cccc(C(F)(F)F)c1` (stereo partly shown) [I-246] displayed a DC50 below 10 nM.

`COc1cc2nn([C@H]3CC[C@H](CN4CCC5(CN(c6cccc7c6n(C)c(=O)n7C6CCC(=O)NC6=O)C5)C(F)(F)C4)CC3)cc2cc1NC(=O)c1cncc(C#N)c1` (stereo partly shown) [I-247] had a half-maximal degradation concentration (DC50) below 10 nM.

Take `COc1cc2nn([C@H]3CC[C@H](CN4CCC5(CN(c6cccc7c6n(C)c(=O)n7C6CCC(=O)NC6=O)C5)C(F)(F)C4)CC3)cc2cc1NC(=O)c1cncc(F)c1` (stereo partly shown) [I-248]: the DC50 is below 10 nM.

As for `Cn1c(=O)n(C2CCC(=O)NC2=O)c2cccc([C@@H]3CCN(C[C@H]4CC[C@H](n5cc6cc(NC(=O)c7cccc(C#N)c7)ccc6n5)CC4)C[C@H]3F)c21` (stereo partly shown) [I-249], the DC50 was below 10 nM.

In the case of `COc1cc2nn([C@H]3CC[C@H](CN4CC[C@@H](c5cccc6c5n(C)c(=O)n6C5CCC(=O)NC5=O)[C@H](F)C4)CC3)cc2cc1NC(=O)c1cccc(C#N)c1` (stereo partly shown) [I-250], the DC50 is below 10 nM.

Molecule `COc1cc2nn([C@H]3CC[C@H](CN4CC[C@@H](c5cccc6c5n(C)c(=O)n6C5CCC(=O)NC5=O)[C@H](F)C4)CC3)cc2cc1NC(=O)c1cncc(C(F)(F)F)c1` (stereo partly shown) [I-252] came in with a DC50 below 10 nM.

Regarding `Cn1c(=O)n(C2CCC(=O)NC2=O)c2cccc(N3CC4(CCN(C[C@H]5CC[C@H](n6cc7cc(NC(=O)c8cccc(C(F)(F)F)c8)ncc7n6)CC5)CC4(F)F)C3)c21` (stereo partly shown) [I-253], the DC50 was below 10 nM.

For `Cn1c(=O)n(C2CCC(=O)NC2=O)c2cccc(N3CC4(CCN(C[C@H]5CC[C@H](n6cc7cc(NC(=O)c8cccc(C(F)(F)F)c8)ccc7n6)CC5)CC4(F)F)C3)c21` (stereo partly shown) [I-254], the DC50 was below 10 nM.

`COc1cc2nn([C@H]3CC[C@H](CN4CCC5(CN(c6cccc7c6n(C)c(=O)n7C6CCC(=O)NC6=O)C5)C(F)(F)C4)CC3)cc2cc1NC(=O)c1cccc(C(F)(F)F)c1` (stereo partly shown) [I-255] yielded a DC50 below 10 nM.

System in the next data set: not listed separately
Description: Rodent pharmacokinetics (rat PK). Type of data set: in vivo. The settings on record: po, dosed intravenously or orally by gavage, plasma, read-out: F % (bioavailability). Put shortly:
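Rats were dosed IV or by oral gavage, with jugular blood taken predose and at 5 min (IV only), 15, 30 min and 1, 2, 4, 8, 24 h. Plasma was separated by centrifugation at 4 °C. Oral bioavailability (F %) is coded A (≥5%) or B (≤5%).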
For orientation: bioavailability means dose-corrected exposure relative to a reference, in per cent. As to `COc1cc2nn([C@H]3CC[C@H](CN4CC[C@@H](c5cccc6c5n(C)c(=O)n6C5CCC(=O)NC5=O)[C@H](F)C4)CC3)cc2cc1C(=O)Nc1cccc(C(F)(F)F)n1` (stereo partly shown) [I-200], the bioavailability is at most 5%.

As for `Cn1c(=O)n(C2CCC(=O)NC2=O)c2cccc([C@@H]3CCN(C[C@H]4CC[C@H](n5cc6cc(C(=O)Nc7cccc(C(F)(F)F)n7)ccc6n5)CC4)C[C@H]3F)c21` (stereo partly shown) [I-201], the bioavailability was at most 5%.

`Cn1c(=O)n(C2CCC(=O)NC2=O)c2cccc([C@@H]3CCN(C[C@H]4CC[C@H](n5cc6cc(NC(=O)c7cncc(C(F)(F)F)n7)c(Cl)cc6n5)CC4)C[C@H]3F)c21` (stereo partly shown) [I-210]: the bioavailability was at most 5%.

In the case of `Cn1c(=O)n(C2CCC(=O)NC2=O)c2cccc([C@@H]3CCN(C[C@H]4CC[C@H](n5cc6cc(NC(=O)c7cncc(C(F)(F)F)n7)c(C(F)F)cc6n5)CC4)C[C@H]3F)c21` (stereo partly shown) [I-214], the bioavailability is at most 5%.

On to `COc1cc2nn([C@H]3CC[C@H](CN4CCC5(CCN(c6cccc7c6n(C)c(=O)n7C6CCC(=O)NC6=O)CC5)C(F)(F)C4)CC3)cc2cc1C(=O)Nc1cncc(C#N)c1` (stereo partly shown) [I-228], for which the bioavailability was at most 5%.

Take `COc1cc2nn([C@H]3CC[C@H](CN4CCC5(CN(c6cccc7c6n(C)c(=O)n7C6CCC(=O)NC6=O)C5)C(F)(F)C4)CC3)cc2cc1NC(=O)c1cncc(C)c1` (stereo partly shown) [I-243]: the bioavailability was at most 5%.

As to `Cn1c(=O)n(C2CCC(=O)NC2=O)c2cccc([C@@H]3CCN(C[C@H]4CC[C@H](n5cc6cc(NC(=O)c7cccc(C(F)(F)F)c7)ncc6n5)CC4)C[C@H]3F)c21` (stereo partly shown) [I-244], the bioavailability is at most 5%.

With `Cn1c(=O)n(C2CCC(=O)NC2=O)c2cccc([C@@H]3CCN(C[C@H]4CC[C@H](n5cc6cc(NC(=O)c7cccc(C(F)(F)F)c7)ccc6n5)CC4)C[C@H]3F)c21` (stereo partly shown) [I-245], the bioavailability was at most 5%.

As for `COc1cc2nn([C@H]3CC[C@H](CN4CC[C@@H](c5cccc6c5n(C)c(=O)n6C5CCC(=O)NC5=O)[C@H](F)C4)CC3)cc2cc1NC(=O)c1cccc(C(F)(F)F)c1` (stereo partly shown) [I-246], the bioavailability was at most 5%.

For `COc1cc2nn([C@H]3CC[C@H](CN4CCC5(CN(c6cccc7c6n(C)c(=O)n7C6CCC(=O)NC6=O)C5)C(F)(F)C4)CC3)cc2cc1NC(=O)c1cncc(C#N)c1` (stereo partly shown) [I-247], the bioavailability is at most 5%.

In the case of `COc1cc2nn([C@H]3CC[C@H](CN4CCC5(CN(c6cccc7c6n(C)c(=O)n7C6CCC(=O)NC6=O)C5)C(F)(F)C4)CC3)cc2cc1NC(=O)c1cncc(F)c1` (stereo partly shown) [I-248], the bioavailability is at most 5%.

On to `Cn1c(=O)n(C2CCC(=O)NC2=O)c2cccc([C@@H]3CCN(C[C@H]4CC[C@H](n5cc6cc(NC(=O)c7cccc(C#N)c7)ccc6n5)CC4)C[C@H]3F)c21` (stereo partly shown) [I-249], for which the bioavailability is at most 5%.

`COc1cc2nn([C@H]3CC[C@H](CN4CC[C@@H](c5cccc6c5n(C)c(=O)n6C5CCC(=O)NC5=O)[C@H](F)C4)CC3)cc2cc1NC(=O)c1cccc(C#N)c1` (stereo partly shown) [I-250]: the bioavailability is at most 5%.

For `COc1cc2nn([C@H]3CC[C@H](CN4CC[C@@H](c5cccc6c5n(C)c(=O)n6C5CCC(=O)NC5=O)[C@H](F)C4)CC3)cc2cc1NC(=O)c1cncc(C(F)(F)F)c1` (stereo partly shown) [I-252], the bioavailability is at most 5%.

`Cn1c(=O)n(C2CCC(=O)NC2=O)c2cccc(N3CC4(CCN(C[C@H]5CC[C@H](n6cc7cc(NC(=O)c8cccc(C(F)(F)F)c8)ncc7n6)CC5)CC4(F)F)C3)c21` (stereo partly shown) [I-253]: the bioavailability was at most 5%.

Turning to `Cn1c(=O)n(C2CCC(=O)NC2=O)c2cccc(N3CC4(CCN(C[C@H]5CC[C@H](n6cc7cc(NC(=O)c8cccc(C(F)(F)F)c8)ccc7n6)CC5)CC4(F)F)C3)c21` (stereo partly shown) [I-254], the bioavailability is at most 5%.

As for `COc1cc2nn([C@H]3CC[C@H](CN4CCC5(CN(c6cccc7c6n(C)c(=O)n7C6CCC(=O)NC6=O)C5)C(F)(F)C4)CC3)cc2cc1NC(=O)c1cccc(C(F)(F)F)c1` (stereo partly shown) [I-255], the bioavailability was at most 5%.
